Drawing on patent US20240101546A1, “HETEROARYL-ACETYLENES, PHARMACEUTICAL COMPOSITIONS THEREOF, AND THEIR THERAPEUTIC APPLICATIONS” (Eubulus Biotherapeutics Inc., priority 2020, published 2024), this text covers EC50 for 18 compounds.

This experiment deals with hepatocellular carcinoma cell line Hub-7. Put plainly: Cell proliferation assay, Hub-7 (CELL-TITER GLO). Type of experiment: cell-based. The note with it: Hub-7 cells, 24 h incubation, cell viability by CELL-TITER GLO, top concentration 10 μM; read-out: EC50, Inhibition of Hub-7 Cell Proliferation. The protocol: The activity of a compound was determined in a cell proliferation assay using the hepatocellular carcinoma cell line Hub-7. Cells (4,000 cells per well) were seeded in a 96-well tissue culture plate. After incubated overnight, the compound was added at predetermined concentrations, starting with 10 μM and followed by 3-fold serial dilution. After the cells were incubated for 24 h, cell viability was determined using a CELL-TITER GLO® assay. The CELL-TITER GLO® reagent (50 μL) was added to each well and the luminescence was measured by a multimode microplate reader after a brief period of shaking. EC50 values were determined for the compound. The results are summarized in Table 1, wherein A represents a value no greater than 200 nM, B represents a value greater than 200 nM but no greater than 1 μM, C represents a value greater than 1 μM but no greater than 5 μM, and D represents a value greater than 5 μM.
For the compound `C#Cc1nc(C(=O)NCCc2ccc(-c3cccc4[nH]ncc34)cc2)cs1` [Compound C49, N-(4-(1H-Indazol-4-yl)phenethyl)-2-ethynylthiazole-4-carboxamide], the EC50 was ≤ 200 nM. The value for `C#Cc1nc(C(=O)N2CCCC(C(=O)OC)C2)cs1` (stereo not drawn) [Compound D36, Methyl 1-(2-ethynylthiazole-4-carbonyl)piperidine-3-carboxylate] was > 5000 nM; that for `C#Cc1nc(C(=O)NCc2ccc(-c3cnn(C)c3)cc2)cs1` [Compound C83, 2-Ethynyl-N-(4-(1-methyl-1H-pyrazol-4-yl)benzyl)thiazole-4-carboxamide] was 1000 to 5000 nM; that for `C#Cc1nc(NC(=O)CCc2ccc3c(c2)OCO3)cs1` [Compound E9, 3-(Benzo[d][1,3]dioxol-5-yl)-N-(2-ethynylthiazol-4-yl)propanamide] was 200 to 1000 nM. The value for `C#Cc1nc(C(=O)N2CCN(c3ccc(-c4c(C)ccc5c4cnn5C)cc3)CC2)cs1` [Compound D1, (4-(4-(1,5-Dimethyl-1H-indazol-4-yl)phenyl)piperazin-1-yl)(2-ethynylthiazol-4-yl)methanone] was ≤ 200 nM; that for `C#Cc1nc(C(=O)NCCc2ccc(-c3cn[nH]c3)cc2)cs1` [Compound C76, N-(4-(1H-Pyrazol-4-yl)phenethyl)-2-ethynylthiazole-4-carboxamide] was 1000 to 5000 nM; that for `C#Cc1nc(C(=O)NCCc2cccc([N+](=O)[O-])c2)cs1` [Compound C87, 2-Ethynyl-N-(3-nitrophenethyl)thiazole-4-carboxamide] was 200 to 1000 nM.

For `C#Cc1nc(C(=O)N2CCN(c3ccc(-c4cc(C(=O)OC)cc5ncsc45)cc3)CC2)cs1` [Compound D4, Methyl 7-(4-(4-(2-ethynylthiazole-4-carbonyl)piperazin-1-yl)phenyl)benzo[d]-thiazole-5-carboxylate], the EC50 was ≤ 200 nM. The value for `C#Cc1nc(C(=O)NCc2ccc(-c3cccc4[nH]ncc34)cc2)cs1` [Compound C40, N-(4-(1H-Indazol-4-yl)benzyl)-2-ethynylthiazole-4-carboxamide] was 1000 to 5000 nM. The value for `C#Cc1nc(C(=O)NCc2ccccc2NC(C)=O)cs1` [Compound C136, N-(2-Acetamidobenzyl)-2-ethynylthiazole-4-carboxamide] was > 5000 nM; that for `C#Cc1nc(C(=O)NCCc2cccc(-c3cccc4c3cnn4C)c2)cs1` [Compound C30, 2-Ethynyl-N-(3-(1-methyl-1H-indazol-4-yl)phenethyl)thiazole-4-carboxamide] was 1000 to 5000 nM; that for `C#Cc1nc(C(=O)NCc2ccc(NC(C)=O)cc2)cs1` [Compound C89, N-(4-Acetamidobenzyl)-2-ethynylthiazole-4-carboxamide] was > 5000 nM. With `C#Cc1nc(C(=O)NCCc2ccc(-c3cccc4ccnc(O)c34)cc2)cs1` [Compound C16, 2-Ethynyl-N-(4-(1-hydroxyisoquinolin-8-yl)phenethyl)thiazole-4-carboxamide] the figure was 200 to 1000 nM; with `C#Cc1nc(C(=O)N(CC(=O)OCC)Cc2ccccc2)cs1` [Compound C131, Ethyl N-benzyl-N-(2-ethynylthiazole-4-carbonyl)glycinate], 1000 to 5000 nM. In the case of `C#Cc1nc(C(=O)N2CCC(F)(c3ccc(-c4cccc5ncsc45)cc3)CC2)cs1` [Compound D11, (4-(4-(Benzo[d]thiazol-7-yl)phenyl)-4-fluoropiperidin-1-yl)(2-ethynylthiazol-4-yl)methanone], the EC50 was ≤ 200 nM. On to `C#Cc1nc(C(=O)NCCc2ccc(S(C)(=O)=O)cc2)cs1` [Compound C101, 2-Ethynyl-N-(4-(methylsulfonyl)phenethyl)thiazole-4-carboxamide], for which the EC50 was > 5000 nM. The value for `C#Cc1nc(NC(=O)Cc2ccccc2)cs1` [Compound C77, N-(2-Ethynylthiazol-4-yl)-2-phenylacetamide] was 200 to 1000 nM.

In the case of `C#Cc1nc(C(=O)NCCc2ccc(-c3cccc4[nH]ccc34)cc2)cs1` [Compound C51, N-(4-(1H-Indol-4-yl)phenethyl)-2-ethynylthiazole-4-carboxamide], the EC50 was 200 to 1000 nM.
